Here are results for 16 compounds from patent US20240343710A1, “HETEROCYCLIC COMPOUNDS AND METHODS OF USE THEREOF” (1cBio, Inc., priority 2023, published 2024).

One test has as its target recombinant human PARP1 (Homo sapiens, UniProt P09874). Briefly: PARP1 fluorescence polarization binding assay. The following applies: GST-tagged PARP1 20 nM, PARP1-FL probe 3 nM. In short, it runs like this:
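GST-tagged human PARP1 (20 nM final) preincubated 30 min at RT with compound (10-point 3-fold series or single concentration). PARP1-FL probe (3 nM final) added, then 4 h at RT. Buffer: 50 mM Tris pH 8.0, 10 mM MgCl2, 150 mM NaCl, 0.001% Triton X-100. FP mP values normalized to controls; IC50 from four-parameter fit.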
A general note: Polarisation of emitted light reports the rotation of a fluorescent probe.

A further test has as its target recombinant human PARP2 (Homo sapiens, UniProt Q9UGN5). Briefly: PARP2 fluorescence polarization binding assay. The following applies: read-out: PARP2 % inh at 10 μM.
Test [1] concerns DLD-1 BRCA2(−/−) colorectal adenocarcinoma cells. Put plainly: Cell viability assay (Cell Titer-Glo, 7 days), DLD-1 BRCA2(−/−). The format is cell-based. The conditions noted are these: Homo sapiens, 168 h, DLD-1 BRCA2(−/−) cells. The text has this:
(§1) In some embodiments, the biological assay measures the effects that compounds of the present disclosure may have on the viability of cells, e.g., the viability of cancer cells. In some embodiments, DLD-1 wild-type and DLD-1 BRCA2(−/−) colorectal adenocarcinoma cells, an isogenic pair of cell lines differing in the presence and absence, respectively, of both BRCA2 alleles, are used to measure the effect of the disclosed compounds on the viability of cancer cells. In some embodiments, the cells are harvested during the logarithmic growth period, counted, and seeded at a specified count in the wells of a 96- or 384-well cell culture plate. In some embodiments, after seeding, the cells are incubated, e.g., at 37° C., 5% CO2 overnight. In some embodiments, the cells are treated with compounds, e.g., with serially diluted test compounds at 8-11 concentrations within a desired concentration range, e.g., from 1 nM-10 μM, for the generation of dose-response curves. In some embodiments, the plate is further incubated, e.g., for another 3-7 days in a humidified incubator at 37° C. and 5% CO2. In some embodiments, cell viability is assessed by luminescence measurement after addition of Cell Titer-Glo reagent (Promega, Madison, Wis.) according to the manufacturer's instructions. In some embodiments, cell viability IC50 values are calculated using XLFit, equation 201: y=A+((B−A)/(1+((x/C)^D))), where A=bottom, B=top, C=IC50, and D=slope. In some embodiments, the effects of the test compounds on the viability of other cell lines such as MDA-MB-436, MDA-MB-231, SUM149PT, HCC1395, and UWB1.289 are determined in an analogous method.
(§2) Compounds of the present disclosure were tested for their effects on the viability of cancer cells. DLD-1 wild-type and DLD-1 BRCA2(−/−) colorectal adenocarcinoma cells, an isogenic pair of cell lines differing in the presence and absence, respectively, of both BRCA2 alleles, were used. The cells were harvested during the logarithmic growth period, counted, and seeded at 50 cells/well for DLD-1 wild-type and 200 cells/well for DLD-1 BRCA2(−/−) in a 384-well cell culture plate. After seeding, cells were incubated at 37° C., 5% CO2 overnight. Cells were treated with serially diluted test compounds at 10 concentrations (e.g., from 1.5 nM-30 μM) for generation of dose response curves, or at a single concentration. The plate was further incubated for another 7 days in a humidified incubator at 37° C. and 5% CO2. Cell viability was assessed by luminescence measurement after addition of Cell Titer-Glo reagent (Promega, Madison, Wis.) according to the manufacturer's instructions. Cell viability IC50 values were calculated using XLFit, equation 201. y=A+((B−A)/(1+((x/C)^D))), where A=bottom, B=top, C=IC50, and D=slope. IC50 values are shown in Table B and are presented in ranges, in which “+++”<300 nM, 300 nM≤“++”<3000 nM, and “+”≥3000 nM. Values for percent inhibition at 10 μM are also shown in Table B and are presented in ranges, in which “***”≥67%, 33%: “**”≤67%, and “*”<33%. Effects of the test compounds on the viability of other cell lines such as MDA-MB-436, MDA-MB-231, SUM149PT, HCC1395, and UWB1.289 are determined in an analogous method.

The test system of test [2] is DLD-1 wild-type colorectal adenocarcinoma cells. Briefly: Cell viability assay (Cell Titer-Glo, 7 days), DLD-1 wild-type. The format is cell-based. The following applies: Homo sapiens, 168 h, DLD-1 wild-type cells, read-out: DLD-1 wild-type % inh at 10 μM.
Description: as §1, §2
(ATP-based viability assays read luminescence as a measure of living cells.)

Setting [3] is: percent inhibition at 10 μM, fluorescence polarization, GST-tagged PARP2 20 nM, PARP1-FL probe 3 nM.

Where a name gives a salt, the structure may show the parent alone. Read-outs that look alike come from different tables or passages of the source.

Chain of recombinant human PARP2 (Q9UGN5 whole entry): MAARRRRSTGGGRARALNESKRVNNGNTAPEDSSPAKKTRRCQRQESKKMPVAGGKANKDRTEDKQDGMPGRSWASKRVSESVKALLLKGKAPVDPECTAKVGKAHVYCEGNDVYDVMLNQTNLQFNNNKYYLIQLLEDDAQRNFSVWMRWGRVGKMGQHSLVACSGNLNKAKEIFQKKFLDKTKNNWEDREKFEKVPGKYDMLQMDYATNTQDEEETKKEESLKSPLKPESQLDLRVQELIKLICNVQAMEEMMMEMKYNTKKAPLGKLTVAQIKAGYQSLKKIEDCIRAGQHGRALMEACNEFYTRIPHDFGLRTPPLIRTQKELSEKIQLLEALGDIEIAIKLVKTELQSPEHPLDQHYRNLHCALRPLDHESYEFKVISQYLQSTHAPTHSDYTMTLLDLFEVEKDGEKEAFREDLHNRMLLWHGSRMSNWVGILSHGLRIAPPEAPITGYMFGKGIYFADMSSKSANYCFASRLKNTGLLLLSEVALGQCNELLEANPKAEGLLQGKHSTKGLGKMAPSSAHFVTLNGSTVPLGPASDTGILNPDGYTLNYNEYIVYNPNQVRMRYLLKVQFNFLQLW
Chain of recombinant human PARP1 (P09874 whole entry): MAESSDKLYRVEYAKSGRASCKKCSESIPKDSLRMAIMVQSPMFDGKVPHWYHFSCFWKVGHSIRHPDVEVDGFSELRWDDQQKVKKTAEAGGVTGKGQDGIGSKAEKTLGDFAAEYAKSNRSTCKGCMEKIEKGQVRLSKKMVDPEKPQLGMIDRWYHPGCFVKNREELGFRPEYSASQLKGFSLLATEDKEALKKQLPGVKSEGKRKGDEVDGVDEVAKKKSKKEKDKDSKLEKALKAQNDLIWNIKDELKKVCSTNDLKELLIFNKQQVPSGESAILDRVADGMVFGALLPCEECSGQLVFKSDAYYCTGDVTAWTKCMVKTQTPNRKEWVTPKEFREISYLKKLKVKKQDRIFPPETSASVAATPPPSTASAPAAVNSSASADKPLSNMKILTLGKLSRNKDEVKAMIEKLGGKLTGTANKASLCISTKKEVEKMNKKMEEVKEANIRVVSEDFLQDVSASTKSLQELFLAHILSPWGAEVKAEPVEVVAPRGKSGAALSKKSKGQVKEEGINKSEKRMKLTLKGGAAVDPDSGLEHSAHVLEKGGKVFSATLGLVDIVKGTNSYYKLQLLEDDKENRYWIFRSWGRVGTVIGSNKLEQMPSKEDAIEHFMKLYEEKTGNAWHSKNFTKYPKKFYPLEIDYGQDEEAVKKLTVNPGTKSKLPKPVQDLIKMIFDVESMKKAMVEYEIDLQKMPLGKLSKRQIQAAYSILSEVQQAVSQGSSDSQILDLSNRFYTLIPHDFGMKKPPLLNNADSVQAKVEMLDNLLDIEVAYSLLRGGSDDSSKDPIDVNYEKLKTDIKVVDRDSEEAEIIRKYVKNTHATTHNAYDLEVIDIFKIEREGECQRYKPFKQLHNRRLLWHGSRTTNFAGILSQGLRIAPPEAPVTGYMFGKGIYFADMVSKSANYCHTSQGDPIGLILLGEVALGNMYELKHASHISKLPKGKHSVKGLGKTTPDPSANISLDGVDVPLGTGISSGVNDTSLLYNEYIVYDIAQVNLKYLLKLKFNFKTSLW

The IC50 is the midpoint of a concentration-inhibition curve. For the compound `CCNC(=O)Nc1cc(CN2CCN(c3ccc(C(=O)NC)nc3F)CC2)ncn1` [Compound 229, 5-(4-((6-(3-ethylureido)pyrimidin-4-yl)methyl)piperazin-1-yl)-6-fluoro-N-methylpicolinamide formate], the IC50 at recombinant human PARP1 is < 0.1 µM; in test [1], < 0.3 µM. Besides, the inhibition at 10 µM (at recombinant human PARP2; in test [2]) was < 33% each time.

`CNC(=O)c1ccc(N2CCN(Cc3ccnc(NC(=O)NC4CC4)c3)CC2)c(C)n1` [Compound 46, 5-(4-((2-(3-cyclopropylureido)pyridin-4-yl)methyl)piperazin-1-yl)-N,6-dimethylpicolinamide]: the results for the IC50 (on recombinant human PARP1; in test [1]) were < 0.1 µM and < 0.3 µM, respectively. For the same compound, the inhibition at 10 µM (on recombinant human PARP2 (setting [3]); in test [2]) was < 33% each time.

On to `CCNC(=O)Nc1nccc(CN2CCN(c3ccc(C(=O)NC)nc3C)CC2)c1C` [Compound 260, 5-(4-((2-(3-ethylureido)-3-methylpyridin-4-yl)methyl)piperazin-1-yl)-N,6-dimethylpicolinamide hemiformate], for which the half-maximal inhibitory concentration (IC50) at recombinant human PARP1 is < 0.1 µM; in test [1], 0.3 to 3 µM. The inhibition at 10 µM (on recombinant human PARP2; in test [2]) was < 33% each time.

For `CCNC(=O)Nc1ncc(CN2CCN(c3ccc(C(=O)NC)nc3C)CC2)n1C` [Compound 277, 5-(4-((2-(3-ethylureido)-1-methyl-1H-imidazol-5-yl)methyl)piperazin-1-yl)-N,6-dimethylpicolinamide], the IC50 at recombinant human PARP1 is < 0.1 µM; in test [1], ≥ 3 µM. Moreover, the inhibition at 10 µM (on recombinant human PARP2 (setting [3]); in test [2]) was < 33% each time.

On to `[2H]C([2H])([2H])c1nc(C(=O)NC)ccc1N1CCN(Cc2ccnc(NC(=O)NCC)c2)CC1` [Compound 274, 5-(4-((2-(3-ethylureido)pyridin-4-yl)methyl)piperazin-1-yl)-N-methyl-6-(methyl-d3) picolinamide hemiformate], for which the IC50 was < 0.1 µM at recombinant human PARP1 and < 0.3 µM in test [1]. Besides, the inhibition at 10 µM (on recombinant human PARP2 (setting [3]); in test [2]) was < 33% each time.

As for `CCNC(=O)Nc1ncc(CN2CCN(c3ccc(C(=O)NC)nc3C)CC2)s1` [Compound 242, 5-(4-((2-(3-ethylureido)thiazol-5-yl)methyl)piperazin-1-yl)-N,6-dimethylpicolinamide trifluoroacetate], the IC50 on recombinant human PARP1 is < 0.1 µM; in test [1], 0.3 to 3 µM. The inhibition at 10 µM (on recombinant human PARP2; in test [2]) was < 33% each time.

Take `CCNC(=O)Nc1cc(CN2CCN(c3ccc(C#N)cn3)CC2)ncn1` [Compound 275, 1-(6-((4-(5-cyanopyridin-2-yl)piperazin-1-yl)methyl)pyrimidin-4-yl)-3-ethylurea]: the values for the IC50 (on recombinant human PARP1; in test [1]) were < 0.1 µM and < 0.3 µM, respectively. The inhibition at 10 µM (on recombinant human PARP2 (setting [3]); in test [2]) was < 33% in each case.

Consider `CCNC(=O)Nc1cc(CN2CCN3c4ccc(C(=O)NC)nc4OC[C@H]3C2)ccn1` [Compound 264, (R)-3-((2-(3-ethylureido)pyridin-4-yl)methyl)-N-methyl-1,2,3,4,4a,5-hexahydropyrazino[1,2-d]pyrido[2,3-b][1,4]oxazine-8-carboxamide], for which the IC50 on recombinant human PARP1 is < 0.1 µM; in test [1] it was < 0.3 µM. In addition, the inhibition at 10 µM was 33 to 67% on recombinant human PARP2 (setting [3]) and < 33% in test [2].

As for `CCNC(=O)Nc1nccc(CN2CCN(c3ccc(C(=O)NC)nc3F)CC2)c1F` [Compound 81, 5-(4-((2-(3-ethylureido)-3-fluoropyridin-4-yl)methyl)piperazin-1-yl)-6-fluoro-N-methylpicolinamide], the results for the concentration for half-maximal inhibition (IC50) (on recombinant human PARP1; in test [1]) were < 0.1 µM and < 0.3 µM, respectively. For the same compound, the inhibition at 10 µM (at recombinant human PARP2 (setting [3]); in test [2]) was < 33% throughout.

On to `CCNC(=O)Nc1cc(CN2CCN(c3ccc(-n4cccn4)nc3C)CC2)ccn1` [Compound 24, 1-ethyl-3-(4-((4-(2-methyl-6-(1H-pyrazol-1-yl)pyridin-3-yl)piperazin-1-yl)methyl)pyridin-2-yl)urea], for which the half-inhibitory concentration (IC50) at recombinant human PARP1 is < 0.1 µM; in test [1], < 0.3 µM. Besides, the inhibition at 10 µM (on recombinant human PARP2 (setting [3]); in test [2]) was < 33% throughout.

Consider `CCNC(=O)Nc1cc(CN2CCN(c3ccc(C(F)(F)F)cn3)CC2)ccn1` [Compound 273, 1-ethyl-3-(4-((4-(5-(trifluoromethyl)pyridin-2-yl)piperazin-1-yl)methyl)pyridin-2-yl) urea], for which the IC50 was < 0.1 µM on recombinant human PARP1 and ≥ 3 µM in test [1]. Besides, the inhibition at 10 µM (at recombinant human PARP2 (setting [3]); in test [2]) was < 33% in each case.

For the compound `CCNC(=O)Nc1cc(CN2CCN(c3ccc(C(=O)NC)nc3C#N)CC2)ccn1` [Compound 22, 6-cyano-5-(4-((2-(3-ethylureido)pyridin-4-yl)methyl)piperazin-1-yl)-N-methylpicolinamide], the IC50 on recombinant human PARP1 was < 0.1 µM; in test [1], < 0.3 µM. For the same compound, the inhibition at 10 µM at recombinant human PARP2 (setting [3]) was 33 to 67%; in test [2] it was < 33%.

As to `CCNC(=O)Nc1ncnc(CN2CCN(c3ccc(C(=O)NC)nc3F)CC2)c1F` [Compound 278, 5-(4-((6-(3-ethylureido)-5-fluoropyrimidin-4-yl)methyl)piperazin-1-yl)-6-fluoro-N-methylpicolinamide], the IC50 is < 0.1 µM at recombinant human PARP1 and < 0.3 µM in test [1]. In addition, the inhibition at 10 µM (on recombinant human PARP2 (setting [3]); in test [2]) was < 33% throughout.

Regarding `CNC(=O)c1ccc(N2CCN(Cc3ccnc(NC(=O)NCC(F)(F)F)c3)CC2)c(C)n1` [Compound 50, N,6-dimethyl-5-(4-((2-(3-(2,2,2-trifluoroethyl)ureido)pyridin-4-yl)methyl)piperazin-1-y) picolinamide trifluoroacetate], the results for the IC50 (at recombinant human PARP1; in test [1]) were < 0.1 µM and < 0.3 µM, respectively. Besides, the inhibition at 10 µM (at recombinant human PARP2 (setting [3]); in test [2]) was < 33% in each case.

For `CCNC(=O)Nc1cc(CN2CCN(c3cnc4c(NC)nccc4c3)CC2)ccn1` [Compound 257, 1-ethyl-3-(4-((4-(8-(methylamino)-1,7-naphthyridin-3-yl)piperazin-1-yl)methyl)pyridin-2-yl)urea], the results for the IC50 (at recombinant human PARP1; in test [1]) were < 0.1 µM and 0.3 to 3 µM, respectively. Besides, the inhibition at 10 µM is 33 to 67% at recombinant human PARP2 (setting [3]) and < 33% in test [2].

With `CCNC(=O)Nc1cc(CN2CCN(c3ccc(NC(C)=O)nc3C)CC2)ccn1` [Compound 269, N-(5-(4-((2-(3-ethylureido)pyridin-4-yl)methyl)piperazin-1-yl)-6-methylpyridin-2-yl)acetamide], the IC50 on recombinant human PARP1 is < 0.1 µM; in test [1] it was < 0.3 µM. Further, the inhibition at 10 µM (on recombinant human PARP2 (setting [3]); in test [2]) was < 33% in each case.
